pIC50: −log10 of the molar value.
Biological target: T1, αvβ6 (Homo sapiens, UniProt P06756+P18564)
T1 construct: endogenous in cells; host or cells: HT-29 cells
Experiment: αvβ6 cell adhesion inhibition test (HT-29 cells on recombinant human LAP protein)
Type: cell-based
Details: recombinant human LAP coating, 200 μM MnCl2, 1 hour, read-out: IC50 (rate of inhibition of cell adhesion, αvβ6)
Method: Test Example 2 was performed by partially modifying the method of Henderson et al. (Nat Med., 19 (12), 1617-24, 2013). In Test Example 2, the same reagents as in Test Example 1 were used unless otherwise specified.
Recombinant human LAP protein (manufactured by R&D Systems, Inc., 246-LP-025) was prepared at […] with PBS, dispensed at 100 μL/well to a 96-well plate, and left standing overnight. The plate was washed with HBSS, then subjected to blocking treatment with DMEM containing 1% BSA, and used as a coated plate in the adhesion test.
HT-29 cells cultured in McCoy's 5A medium (manufactured by Thermo Fisher Scientific, Inc., 16600) containing 10% FBS and 1% penicillin/streptomycin/amphotericin B were recovered and suspended in DMEM containing 0.1% BSA and 200 μM MnCl2 to prepare a cell suspension. A test compound was added thereto.
The cell suspension of 5×10^5 cells/mL containing the test compound was added at 100 μL/well to the coated plate and left standing for 1 hour in a 5% CO2 incubator (37° C.). One hour later, the supernatant was removed, and the plate was washed with HBSS containing 200 μM MnCl2. The cells that adhered to each well in the plate were stained with crystal violet, and the cells were lysed, followed by absorbance measurement. Inhibition without substrate coating was defined as 100% inhibition, and inhibition when DMSO was added instead of the test compound was defined as 0% inhibition. The rate of inhibition of cell adhesion by the test compound was calculated according to the following expression.
Rate of inhibition of cell adhesion (%)=[1−{(Absorbance in the case of adding the test compound)−(Absorbance without substrate coating)}/{(Absorbance in the case of adding DMS)−(Absorbance without substrate coating)}]×100
An IC50 value was calculated from the rate of inhibition of cell adhesion by the test compound. A: IC50<3 nM, B: 3 nM≤IC50<10 nM, C: 10 nM≤IC50<30 nM, D: 30 nM≤IC50<100 nM, or E: IC50≥100 nM.

T1 sequence (P06756 31-889 limits assumed): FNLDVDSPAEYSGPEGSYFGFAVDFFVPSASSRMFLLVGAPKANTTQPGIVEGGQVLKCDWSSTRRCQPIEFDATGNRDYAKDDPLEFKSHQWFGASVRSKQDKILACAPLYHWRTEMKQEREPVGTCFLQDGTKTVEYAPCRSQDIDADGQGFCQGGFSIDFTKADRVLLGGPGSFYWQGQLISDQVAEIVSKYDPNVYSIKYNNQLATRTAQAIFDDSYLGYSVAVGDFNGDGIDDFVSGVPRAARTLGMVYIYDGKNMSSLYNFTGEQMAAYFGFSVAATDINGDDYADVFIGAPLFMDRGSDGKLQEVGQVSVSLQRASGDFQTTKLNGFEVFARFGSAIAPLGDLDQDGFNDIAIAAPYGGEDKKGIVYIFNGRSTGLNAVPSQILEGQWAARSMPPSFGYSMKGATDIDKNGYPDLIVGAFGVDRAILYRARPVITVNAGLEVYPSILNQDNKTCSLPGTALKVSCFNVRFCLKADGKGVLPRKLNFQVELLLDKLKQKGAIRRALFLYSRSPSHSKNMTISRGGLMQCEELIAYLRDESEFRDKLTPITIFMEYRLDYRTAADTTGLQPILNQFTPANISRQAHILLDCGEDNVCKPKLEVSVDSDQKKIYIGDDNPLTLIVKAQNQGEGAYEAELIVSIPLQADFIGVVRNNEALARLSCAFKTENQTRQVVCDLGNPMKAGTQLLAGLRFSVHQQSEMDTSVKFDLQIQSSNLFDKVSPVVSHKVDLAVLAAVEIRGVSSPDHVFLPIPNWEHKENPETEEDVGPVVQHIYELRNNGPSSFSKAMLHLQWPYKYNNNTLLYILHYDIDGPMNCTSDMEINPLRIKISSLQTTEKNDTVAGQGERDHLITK
T1 sequence (P06756 891-1048 limits assumed): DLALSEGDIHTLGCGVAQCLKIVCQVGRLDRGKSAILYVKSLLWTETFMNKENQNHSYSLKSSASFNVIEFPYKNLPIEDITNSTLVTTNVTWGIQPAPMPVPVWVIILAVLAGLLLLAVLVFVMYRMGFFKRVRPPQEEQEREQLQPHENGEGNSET
T1 sequence (P18564 22-788): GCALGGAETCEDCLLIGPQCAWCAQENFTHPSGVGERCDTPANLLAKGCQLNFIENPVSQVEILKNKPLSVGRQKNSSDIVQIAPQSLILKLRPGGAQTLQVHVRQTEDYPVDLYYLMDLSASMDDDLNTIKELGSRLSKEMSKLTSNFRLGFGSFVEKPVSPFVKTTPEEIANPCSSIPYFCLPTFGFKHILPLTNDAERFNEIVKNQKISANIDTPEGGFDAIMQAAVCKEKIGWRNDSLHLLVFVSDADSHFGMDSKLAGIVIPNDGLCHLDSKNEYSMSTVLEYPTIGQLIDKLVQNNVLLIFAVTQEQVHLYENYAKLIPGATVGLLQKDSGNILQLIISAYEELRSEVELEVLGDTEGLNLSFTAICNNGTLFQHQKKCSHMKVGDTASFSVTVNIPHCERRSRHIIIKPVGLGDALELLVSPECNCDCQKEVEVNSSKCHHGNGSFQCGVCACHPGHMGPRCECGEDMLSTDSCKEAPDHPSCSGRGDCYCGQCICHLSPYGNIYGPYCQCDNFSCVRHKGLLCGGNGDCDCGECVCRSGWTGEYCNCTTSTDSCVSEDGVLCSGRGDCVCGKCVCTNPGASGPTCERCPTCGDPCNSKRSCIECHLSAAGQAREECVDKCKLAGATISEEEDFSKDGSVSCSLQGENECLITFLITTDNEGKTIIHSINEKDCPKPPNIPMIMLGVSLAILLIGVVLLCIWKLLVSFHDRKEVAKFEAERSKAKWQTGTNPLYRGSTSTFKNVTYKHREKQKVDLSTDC

SMILES | pIC50
O=C(O)C[C@H](NC(=O)CNC(=O)c1cc(NC2=NCC(F)CN2)c2cn[nH]c2c1)c1cccc(Cl)c1 (stereo partly drawn) [Example 41-(b), (3S)-3-(3-chlorophenyl)-3-(2-(4-((5-fluoro-1,4,5,6-tetrahydropyrimidin-2-yl)amino)-1H-indazole-6-carboxamido)acetamido)propanoic acid] | > 8.52
O=C(O)C[C@H](NC(=O)CNC(=O)c1cc(NC2=NCC(F)CN2)c2cn[nH]c2c1)c1cccc(Br)c1 (stereo partly drawn) [Example 42-(b), (3S)-3-(3-bromophenyl)-3-(2-(4-((5-fluoro-1,4,5,6-tetrahydropyrimidin-2-yl)amino)-1H-indazole-6-carboxamido)acetamido)propanoic acid] | > 8.52
O=C(O)C[C@H](NC(=O)CNC(=O)c1cc(NC2=NCC(F)CN2)c2cn[nH]c2c1)c1cccc(-n2cccn2)c1 (stereo partly drawn) [Example 43-(b), (3S)-3-(3-(1H-pyrazol-1-yl)phenyl)-3-(2-(4-((5-fluoro-1,4,5,6-tetrahydropyrimidin-2-yl)amino)-1H-indazole-6-carboxamido)acetamido)propanoic acid] | > 8.52
Cc1cc(C)n(-c2cccc([C@H](CC(=O)O)NC(=O)CNC(=O)c3cc(NC4=NCC(F)CN4)c4cn[nH]c4c3)c2)n1 (stereo partly drawn) [Example 44-(b), (3S)-3-(3-(3,5-dimethyl-1H-pyrazol-1-yl)phenyl)-3-(2-(4-((5-fluoro-1,4,5,6-tetrahydropyrimidin-2-yl)amino)-1H-indazole-6-carboxamido)acetamido)propanoic acid] | > 8.52
O=C(O)C[C@H](NC(=O)CNC(=O)c1cc(NC2=NCC(F)CN2)c2cn[nH]c2c1)c1cccc(N2CCOCC2)c1 (stereo partly drawn) [Example 45-(b), (3S)-3-(2-(4-((5-fluoro-1,4,5,6-tetrahydropyrimidin-2-yl)amino)-1H-indazole-6-carboxamido)acetamido)-3-(3-morpholinophenyl)propanoic acid] | 8.00 to 8.52
O=C(O)C[C@H](NC(=O)CNC(=O)c1cc(NC2=NCC(F)CN2)c2cn[nH]c2c1)c1ccc(OC(F)F)cc1 (stereo partly drawn) [Example 46-(b), (3S)-3-(4-(difluoromethoxy)phenyl)-3-(2-(4-((5-fluoro-1,4,5,6-tetrahydropyrimidin-2-yl)amino)-1H-indazole-6-carboxamido)acetamido)propanoic acid] | 8.00 to 8.52
O=C(O)C[C@H](NC(=O)CNC(=O)c1cc(NC2=NCC(F)CN2)c2cn[nH]c2c1)c1ccc(C(F)(F)F)cc1 (stereo partly drawn) [Example 47-(b), (3S)-3-(2-(4-((5-fluoro-1,4,5,6-tetrahydropyrimidin-2-yl)amino)-1H-indazole-6-carboxamido)acetamido)-3-(4-(trifluoromethyl)phenyl)propanoic acid] | 8.00 to 8.52
O=C(O)C[C@H](NC(=O)CNC(=O)c1cc(NC2=NCC(F)CN2)c2c(F)n[nH]c2c1)c1cc(Cl)cc(C(F)(F)F)c1 (stereo partly drawn) [Example 48-(b), (3S)-3-(3-chloro-5-(trifluoromethyl)phenyl)-3-(2-(3-fluoro-4-((5-fluoro-1,4,5,6-tetrahydropyrimidin-2-yl)amino)-1H-indazole-6-carboxamido)acetamido) propanoic acid] | > 8.52
O=C(O)C[C@H](NC(=O)CNC(=O)c1cc(NC2=NCC(F)CN2)c2c(Cl)n[nH]c2c1)c1cc(Cl)cc(C(F)(F)F)c1 (stereo partly drawn) [Example 49-(b), (3S)-3-(2-(3-chloro-4-((5-fluoro-1,4,5,6-tetrahydropyrimidin-2-yl)amino)-1H-indazole-6-carboxamido)acetamido)-3-(3-chloro-5-(trifluoromethyl)phenyl)propanoic acid] | > 8.52
O=C(O)C[C@H](NC(=O)CNC(=O)c1cc(NC2=NCC(O)CN2)c2cn[nH]c2c1)c1cc(Cl)cc(C(F)(F)F)c1 (stereo partly drawn) [Example 50-(b), (3S)-3-(3-chloro-5-(trifluoromethyl)phenyl)-3-(2-(4-((5-hydroxy-1,4,5,6-tetrahydropyrimidin-2-yl)amino)-1H-indazole-6-carboxamido)acetamido)propanoic acid] | 7.52 to 8.00
O=C(O)C[C@H](NC(=O)CNC(=O)c1cc(NC2=NCCCN2)c2cn[nH]c2c1)c1cc(Cl)cc(C(F)(F)F)c1 [Example 51-(b), (S)-3-(3-chloro-5-(trifluoromethyl)phenyl)-3-(2-(4-((1,4,5,6-tetrahydropyrimidin-2-yl)amino)-1H-indazole-6-carboxamido)acetamido)propanoic acid] | 7.52 to 8.00
O=C(O)C[C@H](NC(=O)CNC(=O)c1cc(NC2=NCC(F)CN2)cc2[nH]ncc12)c1cc(Cl)cc(C(F)(F)F)c1 (stereo partly drawn) [Example 52-(b), (3S)-3-(3-chloro-5-(trifluoromethyl)phenyl)-3-(2-(6-((5-fluoro-1,4,5,6-tetrahydropyrimidin-2-yl)amino)-1H-indazole-4-carboxamido)acetamido)propanoic acid] | > 8.52
O=C(O)C[C@H](NC(=O)CNC(=O)c1cc(NC2=NCC(F)CN2)cc2[nH]ncc12)c1cc(Br)cc(C(F)(F)F)c1 (stereo partly drawn) [Example 53-(b), (3S)-3-(3-bromo-5-(trifluoromethyl)phenyl)-3-(2-(6-((5-fluoro-1,4,5,6-tetrahydropyrimidin-2-yl)amino)-1H-indazole-4-carboxamido)acetamido)propanoic acid] | > 8.52
O=C(O)C[C@H](NC(=O)CNC(=O)c1cc(NC2=NCC(F)CN2)cc2[nH]ncc12)c1cc(I)cc(C(F)(F)F)c1 (stereo partly drawn) [Example 54-(b), (3S)-3-(2-(6-((5-fluoro-1,4,5,6-tetrahydropyrimidin-2-yl)amino)-1H-indazole-4-carboxamido)acetamido)-3-(3-iodo-5-(trifluoromethyl)phenyl)propanoic acid] | > 8.52
O=C(O)C[C@H](NC(=O)CNC(=O)c1cc(NC2=NCC(F)CN2)cc2[nH]ncc12)c1ccc(F)c(C(F)(F)F)c1 (stereo partly drawn) [Example 55-(b), (3S)-3-(2-(6-((5-fluoro-1,4,5,6-tetrahydropyrimidin-2-yl)amino)-1H-indazole-4-carboxamido)acetamido)-3-(4-fluoro-3-(trifluoromethyl)phenyl)propanoic acid] | > 8.52
O=C(O)C[C@H](NC(=O)CNC(=O)c1cc(NC2=NCC(F)CN2)cc2[nH]ncc12)c1cccc(C(F)(F)F)c1 (stereo partly drawn) [Example 56-(b), (3S)-3-(2-(6-((5-fluoro-1,4,5,6-tetrahydropyrimidin-2-yl)amino)-1H-indazole-4-carboxamido)acetamido)-3-(3-(trifluoromethyl)phenyl)propanoic acid] | 8.00 to 8.52

Reference: patent US20230192661A1, “1, 4, 5, 6-TETRAHYDROPYRIMIDINE-2-AMINE DERIVATIVE” (UBE Corporation, priority 2020, published 2023)
